Measurements published in US20100075345A1, “METHOD OF SCREENING” (priority 2007, published 2010).
pEC50: −log10 of the molar value.

Tested on: Mcl-1^(−/−) mouse embryonic fibroblasts (MEFs)
Assay: Assay of Mcl-1 null MEF cells: ABT-737-induced killing and rescue, cell viability by CellTitre-Blue/CellTitre-Glo
Format: cell-based
Procedure: In summary, cells are split on day one in order to have them at a confluency of 60-80% on day two. On day two, the cells are seeded out into assay plates at a density that will ensure they are not confluent by day four of the assay. The assay plates are incubated at room temperature for 20-60 minutes before being transferred to 37° C. so that edge effects are minimized. For the same reason, assay plates are never stacked on top of each other in the incubator. On day three the cells are treated first with either qVD or with WEHI library compound. […] On day four the cells are incubated for four hours in the presence of CellTitre-Blue™ Cell Viability Assay. This product contains resaruzin which is metabolized by live cells to resorufin. After four hours the level of resorufin is measured. […] This product measures the level of ATP in the cell culture as a direct correlate of cell viability via a luciferase-dependent luminescence output. […]
The protocol for day one was repeated up to the point where the cells were pelleted and the supernatant aspirated off. […] The cells were vortexed and then counted using a haemocytometer. The dilution necessary to achieve a density of 2×10^4 cells ml^−1 (1000 cells per well per 50 μl media) in the required volume was calculated and the dilution performed in 1% FCS containing media. […]

Structure (SMILES) | pEC50 (Mus musculus, Fibroblast, ABT-737-treated Mcl(−/−) cells grown in 1% FCS, headed 'Expected EC50s') | inhibition of killing of Mcl-1 null MEF cells by ABT-737 (rescue from ABT-737-induced apoptosis) (cells pre-incubated 2 hours with compound, then treated with ABT-737, viability read next day)
CC(C)[C@H](NC(=O)c1ccc2ccccc2n1)C(=O)N[C@@H](CC(=O)O)C(=O)COc1c(F)cccc1F [qVD-OPH] |  | can be rescued
